Source: paper PMC6693780, “Triazoloquinazolines as a new class of potent α-glucosidase inhibitors: in vitro evaluation and docking study” (PLoS ONE, 2019)
Where “and” joins values, the source holds several entries; their conditions need not be identical. Equal values may be shown once.

Biological target: α-glucosidase enzyme from Saccharomyces cerevisiae type 1
Test: α-Glucosidase inhibitory assay (p-NPG substrate, absorbance at 405 nm)
Assay type: biochemical
Settings: for IC50: S. cerevisiae α-glucosidase type 1, p-NPG 2 mM, pH 6.5, 37°C, 30 min, triplicate; for times more potent than acarbose: ratio of IC50 values versus acarbose; for inhibition of α-glucosidase (not screened for IC50): screening, concentration not given
Method: For phosphate-buffered saline (PBS), NaH₂PO₄ (1.4 g), NaCl (8 g), KCl (0.2 g), and KH₂PO4 (0.2 g) were dissolved in deionized H2O (1 L) at 20°C. Using NaOH (1M) and HCl (1M), the pH of the solution was adjusted to 6.5 at 20°C. p-Nitrophenyl-α-D-glucopyranoside (2 mM) (p-NPG-substrate) was prepared by dissolving p-NPG (6 mg) in buffer solution (10 mL). α-Glucosidase enzyme Type 1, lyophilized powder (Sigma-Aldrich) from Saccharomyces cerevisiae (a mixture of MAL12 and MAL32) was employed. The enzyme solution was prepared by dissolving 1 mg of in 1000 μL of cold PBS (pH 6.5). Subsequently, 50 μL of α-glucosidase enzyme solution was mixed with cold buffered saline (12 mL) to a concentration of 0.125 unit/mL. For sample screening, a solution of 200 μg/mL concentration was prepared in 100% DMSO, and then subjected to two-fold serial dilution in 5% DMSO in a 96-well microplate to obtain concentrations of 100, 50, 25, 12.5, 6.25, 3.13, and 1.56 μg/mL. The samples were screened using Epoch 2 Microplate Spectrophotometer from BioTek. To each well of the 96-well microplate, 10 μL of DMSO (5%) was added. The stock solution (10 μL) was added to the first well and mixed. Then, 10 μL of sample was withdrawn from the first well and added to the second well, and the process was repeated for two-fold serial dilution. Subsequently, 20 μL of α-glucosidase enzyme, 40 μL of PBS (pH 6.5), and 20 μL of deionized H2O were added to each well of the 96-well microtiter plate with constant stirring. The plate was pre-incubated at 37°C for 10 min, and then 10 μL of p-NPG (2 mM) solution was added to the mixture; its absorbance at 0 min was measured at a wavelength of 405 nm. The reaction mixture was incubated at 37°C for 30 min, and subsequently, its absorbance was measured. […] The experiment was performed in triplicate. According to a previously described methodology, the α-glucosidase inhibitory activity was determined and the inhibition (%) of this activity was calculated using the following equation: %inhibition=(A30min−A0min)control−(A30min−A0min)exp/(A30min−A0min)control×100

With `O=c1[nH]c2nc(Oc3ccccc3)nn2c2ccccc12` [Compound 3] the IC50 was 83.9 ± 5.12 µM.

With `Cc1ccc2c(=O)n(Cc3ccc([N+](=O)[O-])cc3)c3nc(Oc4ccccc4)nn3c2c1` [Compound 11] the “% inhibition of α-glucosidase” value (at 0.23 μM) was 19.52% inhibition at 0.23 μM.

With `CCn1c(=O)c2ccccc2n2nc(SC)nc12` [Compound 4] the IC50 was 45.6 ± 4.28 µM and the “times more potent than acarbose” value was roughly 3.

`CSc1nc2[nH]c(=O)c3ccccc3n2n1` [Compound 1] gave an IC50 of 155.9 ± 1.36 µM.

In the case of `CCn1c(=O)c2ccccc2n2nc(S(C)(=O)=O)nc12` [Compound 7], the “% inhibition of α-glucosidase” value (at 0.34 μM) is reported as 19.15% inhibition at 0.34 μM and the “inhibition of α-glucosidase (not screened for IC50)” value is reported as “less than 50%”.

`Cc1ccc2c(=O)n(Cc3cccc(C#N)c3)c3nc(Oc4ccccc4)nn3c2c1` [Compound 13] was tested, and the “% inhibition of α-glucosidase” value (at 0.21 μM) was 27.93% inhibition at 0.21 μM and the “inhibition of α-glucosidase (not screened for IC50)” value was “less than 50%”.

For `O=C1c2ccccc2C(=O)N1CCn1c(=O)c2ccccc2n2nc(Oc3ccccc3)nc12` [Compound 14], the IC50 was 12.7 ± 1.87 µM and the “times more potent than acarbose” value was “approximately 12”.

Work on `O=c1c2ccccc2n2nc(Oc3ccccc3)nc2n1CCN1CCCCC1` [Compound 12] yielded an IC50 of 97.53 ± 0.94 µM.

In the case of `CS(=O)(=O)c1nc2[nH]c(=O)c3ccccc3n2n1` [Compound 2], the IC50 is reported as 180 µM.

In the case of `C=CCn1c(=O)c2ccccc2n2nc(SC)nc12` [Compound 5], the IC50 is reported as 45.6 µM and 72.3 µM.

`CSc1nc2n(Cc3ccc([N+](=O)[O-])cc3)c(=O)c3ccc(C)cc3n2n1` [Compound 6] was tested, and the “% inhibition of α-glucosidase” value (at 0.28 μM) was 16.24% inhibition at 0.28 μM and the “inhibition of α-glucosidase (not screened for IC50)” value was “less than 50%”.

In the case of `Cc1ccc2c(=O)n(Cc3ccc(C#N)cc3)c3nc(Oc4ccccc4)nn3c2c1` [Compound 10], the “% inhibition of α-glucosidase” value (at 0.25 μM) is reported as 14.83% inhibition at 0.25 μM.

In the case of `C=CCn1c(=O)c2ccccc2n2nc(S(C)(=O)=O)nc12` [Compound 8], the IC50 is reported as 28.5 ± 1.22 µM and the “times more potent than acarbose” value is reported as roughly 5.

`O=c1c2ccccc2n2nc(Oc3ccccc3)nc2n1Cc1ccc([N+](=O)[O-])cc1` [Compound 9] was tested, and the “% inhibition of α-glucosidase” value (at 0.24 μM) was 16.89% inhibition at 0.24 μM.
